Our source for the EC50 values is BindingDB's records for doi:10.1021/acsmedchemlett.9b00051 (Ajinomoto, 2019).

The nature of test [1]: Positive allosteric modulator activity at human T1R2/T1R3 expressed in PEAKrapid cells assessed as potentiation of sucrose-induced intracellular calcium influx by measuring sucrose EC50 at 30 uM measured for 120 secs by fluorescence based assay (Rvb = 31.7 mM). On the technique in general: Calcium flux is commonly read through the fluorescence of an indicator in the cells.
Test [2] in a line: Positive allosteric modulator activity at human T1R2/T1R3 expressed in PEAKrapid cells assessed as potentiation of sucrose-induced intracellular calcium influx by measuring sucrose EC50 at 50 uM measured for 120 secs by fluorescence based assay (Rvb = 31.7 mM).

The EC50 is the midpoint of the concentration-response curve. Consider `CC(=O)NCc1ccc(-c2cncc(C(=O)O)c2N)o1`, for which, in test [1], the EC50 was 27.1 mM.

With `CC(C)[C@@H](CC(=O)Nc1cncc(C(=O)O)c1N)NC(=O)[C@@H](N)C1CCCCC1`, in test [1], the EC50 was 18.4 mM.

With `CC(C)CC(=O)NCc1ccc(-c2cncc(C(=O)O)c2N)o1`, the EC50 in test [1] stood at 18.3 mM.

`Nc1c(C(=O)O)cncc1-c1ccc(CNC(=O)[C@@H](N)C2CCCCC2)o1`: the half-maximal effective concentration (EC50) in test [1] amounted to 5.8 mM.

As to `Cc1nc2ccccc2c(N)c1C(=O)O`, in test [1], the EC50 is 15.9 mM.

As to `CC(C)(C)OC(=O)NCc1ccc(-c2cncc(C(=O)O)c2N)o1`, the 50% effective concentration (EC50) in test [1] came out at 24.5 mM.

As to `CC(C)CNC(=O)NCc1ccc(-c2cncc(C(=O)O)c2N)o1`, in test [1], the EC50 stood at 21.6 mM.

In the case of `CC(C)C[C@H](N)C(=O)NCc1ccc(-c2cncc(C(=O)O)c2N)o1`, the EC50 in test [1] was found to be 11.1 mM.

As to `Nc1c(NC(=O)CCCNC(=O)[C@@H](N)C2CCCCC2)cncc1C(=O)O`, the concentration for a half-maximal effect (EC50) in test [1] is 16.2 mM.

As for `Nc1c(NC(=O)CCCCNC(=O)[C@@H](N)C2CCCCC2)cncc1C(=O)O`, in test [1], the EC50 came to 7.8 mM.

Take `C[C@@H](CC(=O)Nc1cncc(C(=O)O)c1N)NC(=O)[C@@H](N)C1CCCCC1`: the EC50 in test [1] was 10.2 mM.

Consider `CC(C)C[C@@H](CC(=O)Nc1cncc(C(=O)O)c1N)NC(=O)[C@@H](N)C1CCCCC1`, for which the EC50 in test [1] came out at 22.7 mM.

`CC[C@H](C)[C@@H](CCC(=O)Nc1cncc(C(=O)O)c1N)NC(=O)[C@@H](N)C1CCCCC1`: the half-maximal effective concentration (EC50) in test [1] turned out to be 8.9 mM.

Regarding `Nc1c(C(=O)O)cncc1-c1ccccc1`, in test [2], the EC50 is 21.5 mM.

In the case of `Nc1c(C(=O)O)cncc1-c1cccs1`, the EC50 in test [2] amounted to 21 mM.

Take `CC(C)C(=O)NCc1ccc(-c2cncc(C(=O)O)c2N)o1`: the EC50 in test [1] came out at 22.1 mM.

On to `CC[C@H](C)[C@H](N)C(=O)NCc1ccc(-c2cncc(C(=O)O)c2N)o1`, for which the EC50 in test [1] turned out to be 10 mM.

`Nc1c(NC(=O)CC[C@H](Cc2ccccc2)NC(=O)[C@@H](N)C2CCCCC2)cncc1C(=O)O`: in test [1], the EC50 amounted to 8.5 mM.

Turning to `CC(C)CNC(=O)C(=O)NCc1ccc(-c2cncc(C(=O)O)c2N)o1`, the EC50 in test [1] is 26.5 mM.

`Cc1nc2cccc(OCC(C)(C)C(=O)NC(C)C)c2c(N)c1C(=O)O`: the EC50 in test [1] was 0.6 mM.

`CC(C)[C@H](N)C(=O)NCc1ccc(-c2cncc(C(=O)O)c2N)o1`: the EC50 in test [1] is 14.6 mM.

`Nc1c(NC(=O)CCCCCCNC(=O)[C@@H](N)C2CCCCC2)cncc1C(=O)O`: the EC50 in test [1] amounted to 20.2 mM.

With `Nc1c(C(=O)O)cncc1-c1ccco1`, the EC50 in test [2] is 16.8 mM.

Consider `CC(C)(CC(=O)Nc1cncc(C(=O)O)c1N)NC(=O)[C@@H](N)C1CCCCC1`, for which the EC50 in test [1] stood at 2.2 mM.

Consider `CC(C)[C@@H](CCC(=O)Nc1cncc(C(=O)O)c1N)NC(=O)[C@@H](N)C1CCCCC1`, for which, in test [1], the EC50 stood at 10.5 mM.
